Among the test systems are T47D; BT-549; KM-20L2; LXFL 529; HOP-18; DLD-1; DMS-114; XF498.
What all share (test): NCI anticancer screen, dose series, 48 h

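Method: 48-hour compound exposure of cells in 96-well plates, five concentrations, linear interpolation of endpoints. Here, GI50 denotes the concentration required for 50% inhibition of growth.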 Active and inactive are the calls of the source. Rule as the data show it: active = GI50 up to about 1.1 µM and inactive = higher. Bounds are passed on as bounds.

As to `c1cc(C2N3CCCN2CC3)ccn1` (configuration not stated), the GI50 in the test on T47D and with BT-549 was > 100 µM (inactive) each time.
`Cn1c(=O)c2nc(CCNC(=O)c3ccccc3)[nH]c2n(C)c1=O`: the GI50 with T47D and in the test with BT-549 was > 100 µM (inactive) each time.
Regarding `COC(=O)c1c(-c2cc(OC)c(OC)c(OC)c2)oc2ccccc2c1=O`, the GI50 is > 100 µM (inactive) in the test with KM-20L2, 63.4 µM (inactive) in the test with LXFL 529, > 100 µM (inactive) with HOP-18 and 52 µM (inactive) in the test with DLD-1.
For the compound `CC1(C)OC(CCC#N)CN1C(=O)OCc1ccccc1` (configuration not stated), in the test on BT-549, the GI50 is 20.7 µM (inactive).
As for `CN(C)CCNC(=O)Cc1ccccc1Nc1c(Cl)cccc1Cl`, the GI50 is 4.31 µM (inactive) in the test on KM-20L2, 17.7 µM (inactive) in the test on LXFL 529, 14.2 µM (inactive) in the test on DLD-1 and 17.7 µM (inactive) with DMS-114.
Turning to `Cc1cc2nc3n(c2cc1C)C(c1c(F)cccc1F)SC3` (configuration not stated), the values for the GI50 in the test on T47D and in the test with BT-549 were 57.8 µM (inactive) and 28.1 µM (inactive), respectively.
Consider `Cc1nnc(N/N=C(/C(=O)C(C#N)c2ccccc2)C(C#N)c2ccccc2)n1N` (configuration not stated), for which the GI50 in the test with KM-20L2 was 49.3 µM (inactive); in the test on LXFL 529, 3.71 µM (inactive); in the test with HOP-18 it was 15.2 µM (inactive); with DLD-1 it was 22.6 µM (inactive); with DMS-114, 3.01 µM (inactive).
For the compound `CC(C)(CO)CNc1nc(N)nc(Cl)c1/C=N/O`, the GI50 was 4.31 µM (inactive) with T47D and 23.6 µM (inactive) in the test on BT-549.
In the same order, the values of `Cc1ccc2nc(-c3ccc(N4C(=O)C(Cl)C4c4ccc(Cl)cc4)cc3)sc2c1` (configuration not stated) are 27.8 µM (inactive) and 36.7 µM (inactive).
The corresponding values for `O=C1SC(c2ccc(Cl)cc2)(c2ccc(Cl)cc2)c2ccccc21` are 69 µM (inactive) and > 100 µM (inactive).
For the compound `CC(=O)OCCOCn1c2c(c(=O)[nH]c1=O)CCC2`, the GI50 in the test on BT-549 is > 100 µM (inactive).
Consider `O=C(CN1CCCCC1)Nc1ccc2c(c1)C1Oc3ccccc3CC1CO2` (configuration not stated), for which the GI50 is 16.4 µM (inactive) with T47D and 19.9 µM (inactive) in the test with BT-549.
Take `COC(=O)c1ccc(Cc2cc(Cc3ccc(C(=O)OC)cc3)cc(Cc3ccc(C(=O)OC)cc3)c2)cc1`: the GI50 with BT-549 is > 25 µM (inactive).
On to `N#Cc1[nH]c(=S)[nH]c1N`, for which, in the test with BT-549, the GI50 is > 100 µM (inactive).
Regarding `c1ccc(Nc2nnc(CSc3nc(-c4ccccc4)c(-c4ccccc4)[nH]3)s2)cc1`, the GI50 in the test with KM-20L2 was 26.7 µM (inactive); in the test on LXFL 529, 20.1 µM (inactive); in the test with DLD-1, 53.8 µM (inactive); with DMS-114 it was 27.5 µM (inactive).
On to `COc1ccc(-c2c(C#N)c(S)n(NS(=O)(=O)c3ccc(C)cc3)c(=O)c2C#N)cc1`, for which, in the test with BT-549, the GI50 is 13.4 µM (inactive).
Take `CO/N=C\c1ccc2c(c1)Sc1ccccc1O2`: in the test on T47D, the GI50 was 24.5 µM (inactive).
As to `C[C@@H]1C(=O)CC2C(C)(C)CCC[C@]2(C)[C@@]12CC[C@]1(C=COC1)O2` (some centres not stated), the GI50 with KM-20L2 was 46.7 µM (inactive); in the test with HOP-18 it was > 100 µM (inactive); in the test with DMS-114, 35.6 µM (inactive).
Regarding `COc1ccc(N2C(=O)C3c4[nH]c5ccccc5c4C4c5ccccc5CC4C3C2=O)cc1` (configuration not stated), the GI50 in the test on T47D and with BT-549 was > 100 µM (inactive) each time.
Take `CNC(=S)N/N=C(\C)c1cc(OC)ccc1O`: the GI50 with T47D and in the test on BT-549 was > 100 µM (inactive) in each case.
`COc1ccc2c3c1OC1C4(CCC5C(C2)N(CC2CC2)CCC351)OCCO4` (configuration not stated): the GI50 in the test with T47D and with BT-549 was > 100 µM (inactive) each time.
As to `COc1ccc(-c2ncn(C[Si](C)(C)C)c2-c2ccc(OC)cc2)cc1`, in the test with BT-549, the GI50 is 22.4 µM (inactive).
On to `CCOc1ccc(NCC2CC/C(=C\C=C\c3ccccc3)C2=O)cc1` (configuration not stated), for which the GI50 in the test with T47D is 17.3 µM (inactive); with BT-549, 15.2 µM (inactive).
For the compound `NC(=O)C[S+]([O-])CC(N)C(=O)O` (configuration not stated), the GI50 in the test with T47D and with BT-549 was > 100 µM (inactive) in each case.
Turning to `COC(=O)c1c[nH]cc1CCc1c[nH]cc1C(=O)OC`, the GI50 in the test on KM-20L2, in the test with LXFL 529 and in the test with XF498 was > 100 µM (inactive) each time.
With `Cc1ccc2c(c1)C(=O)c1nc(C)ccc1C2=O`, the GI50 was 38.3 µM (inactive) with T47D and 53.7 µM (inactive) in the test on BT-549.
In the same order, the values of `COc1ccc(C(=O)c2[nH]c(Nc3cc(C)ccn3)c(C(=S)Nc3ccccc3)c2N)cc1` are 51.2 µM (inactive) and 19.6 µM (inactive).
The corresponding values for `Brc1ccc2c3c1[C@H]1O[C@H]1c1cccc(c1-3)[C@@H]1O[C@H]21` are 10.3 µM (inactive) and 16.5 µM (inactive).
In the same order, the values of `CCN1CCC(CNC(=O)c2ccc(N)cc2)N1CC` (configuration not stated) are > 100 µM (inactive) and > 100 µM (inactive).
Turning to `Cc1ccccc1NC(=O)C(=O)CC(=O)c1sc(Nc2ccccc2[N+](=O)[O-])nc1C`, the results for the GI50 in the test with T47D and with BT-549 were 27.2 µM (inactive) and 30.7 µM (inactive), respectively.
For `COc1ccccc1-n1c(=O)n(C)c(=O)n1C(C)(C)C`, the GI50 with T47D and in the test with BT-549 was > 100 µM (inactive) throughout.
As to `O=C1NC(=S)NC(=O)C1=C/C=C/c1ccc([N+](=O)[O-])cc1`, the GI50 in the test with T47D is 24.9 µM (inactive); with BT-549, 10.6 µM (inactive).
`CC(=O)O[C@H]1C(=O)[C@@]2(C)[C@H]([C@H](OC(=O)c3ccco3)[C@]3(O)C[C@H](OC(=O)[C@H](O)[C@@H](NC(=O)c4ccccc4)c4ccccc4)C(C)=C1C3(C)C)[C@]1(OC(C)=O)CO[C@@H]1C[C@@H]2O`: the GI50 with BT-549 is 2.81 µM (inactive).
Take `O=C(CC(C(=O)c1ccsc1)c1ccc2c(c1)OCO2)c1ccccc1` (configuration not stated): the GI50 in the test with T47D is 51.6 µM (inactive).
Consider `CCCCCC(C)(C)CCC(=O)OC1OC(COC2OC(COC3OC(CO)C(O)C(O)C3O)C(O)C(O)C2O)C(O)C(O)C1O` (configuration not stated), for which the GI50 in the test with T47D and in the test on BT-549 was > 100 µM (inactive) in each case.
`CCOC(=O)c1c(-c2ccc(OC)cc2)c(C#N)c(=S)n(C2OC(CO)C(O)C(O)C2O)c1C` (configuration not stated): the GI50 in the test with T47D is > 100 µM (inactive).
As to `O=c1[nH]nc(Cc2ccccc2)n1C1CCCC1`, the GI50 in the test with T47D was > 100 µM (inactive).
For `N/C(CSCCSC/C(N)=N/O)=N\O`, the GI50 in the test on T47D and in the test with BT-549 was > 100 µM (inactive) in each case.
Consider `Cc1cc(SCC(=O)c2ccc(Br)cc2)cc(C)[o+]1`, for which the GI50 in the test on T47D is 19.8 µM (inactive); in the test with BT-549 it was 39.7 µM (inactive).
The corresponding values for `Cc1nc2cn3c(c2c(=O)[nH]1)CCCCC3` are > 100 µM (inactive) and > 100 µM (inactive).
`CSc1nc2c(N)ncnc2n1C`: the GI50 in the test on T47D is > 100 µM (inactive).
`O=CNNC(=O)Nc1ccc(Cl)cc1`: the GI50 in the test with T47D was > 100 µM (inactive).
For the compound `c1ccc(C2CC(N3CCOCC3)=Nc3ccccc3N2)cc1` (configuration not stated), the GI50 in the test with BT-549 was > 100 µM (inactive).
With `C=CC1(O)CCCC=C1COCc1ccccc1` (configuration not stated), in the test on T47D, the GI50 was 64 µM (inactive).
Same read-out and setting: as for `CN(C)c1n/c(=N/Cc2cccs2)ss1`, the figure is > 10 µM (inactive).
Take `Oc1ccc(/C=N/CC2CCCN3CCCCC23)cc1` (configuration not stated): the figures for the GI50 with T47D and with BT-549 were 31.3 µM (inactive) and 21.3 µM (inactive), respectively.
In the same order, the values of `CCCCc1ccc(Nc2nc(Cl)c3ccn(C4CC(Oc5ccc(C)cc5)C(COc5ccc(C)cc5)O4)c3n2)cc1` (configuration not stated) are > 46.5 µM (inactive) and 12.6 µM (inactive).
Consider `CC1=C(C(=O)Nc2ccc([N+](=O)[O-])cc2)C(c2ccc3c(c2)OCO3)C(C(=O)Nc2ccc([N+](=O)[O-])cc2)=C(C)N1`, for which the GI50 with KM-20L2 was 28 µM (inactive); in the test on LXFL 529 it was 7.96 µM (inactive); with HOP-18, 23.3 µM (inactive); with DLD-1 it was 12 µM (inactive); with DMS-114 it was 8.55 µM (inactive).
On to `CC(N)C(C)Cc1ccccc1` (configuration not stated), for which the GI50 in the test with T47D and in the test with BT-549 was > 100 µM (inactive) in each case.
In the case of `COc1ccc(/C=C2\CCC(C)/C(=C\c3ccc(OC)c(OC)c3)C2=O)cc1OC` (configuration not stated), the GI50 with T47D is 3.35 µM (inactive); in the test with BT-549 it was 4.6 µM (inactive).
The corresponding values for `O=C(O)Cc1cccc2c1OC(c1ccccc1)C(C(=O)c1ccccc1)C2=O` (configuration not stated) are 10.1 µM (inactive) and > 100 µM (inactive).
In the same order, the values of `OC[C@H]1O[C@@H]2O[C@@](COCc3ccccc3)([C@H](OCc3ccccc3)[C@H]2O)[C@@H]1OCc1ccccc1` are 14.8 µM (inactive) and 22.2 µM (inactive).
Turning to `CC1CC(C)C(C(O)CC2CC(=O)N(c3ccccc3)C(=O)C2)C(O)C1` (configuration not stated), the GI50 in the test on KM-20L2, with LXFL 529, in the test on HOP-18, in the test on DLD-1 and in the test on DMS-114 was > 100 µM (inactive) throughout.
On to `N=C(N)N/N=C\c1ccc(C2CCNCC2)cc1`, for which the GI50 in the test on T47D and with BT-549 was > 100 µM (inactive) in each case.
Turning to `COc1ccc(O)c(C#N)c1C#N`, the GI50 in the test with KM-20L2, in the test with LXFL 529 and in the test with XF498 was > 100 µM (inactive) in each case.
In the case of `CCCCc1ccc(Nc2nc(Cl)c3ncn(C4CC(Oc5ccc(C)cc5)C(COc5ccc(C)cc5)O4)c3n2)cc1` (configuration not stated), the GI50 in the test with T47D and in the test with BT-549 was > 100 µM (inactive) in each case.
As to `O=C(c1cccc(F)c1F)N1CCc2c([nH]c3ccccc23)C1c1ccc2c(c1)OCO2` (configuration not stated), the values for the GI50 in the test on T47D and with BT-549 were 10.6 µM (inactive) and 40.3 µM (inactive), respectively.
The corresponding values for `Cc1cc(NCc2ccccc2)c2ccccc2[n+]1CCCCCCCCCC[n+]1c(C)cc(NCc2ccccc2)c2ccccc21.[O-][Cl+3]([O-])([O-])[O-].[O-][Cl+3]([O-])([O-])[O-]` are 0.321 µM (active) and 0.569 µM (active).
The corresponding values for `CC1C2C=CC1C(c1c3ccc(=O)c(O)c-3oc3c(O)c(O)ccc13)C2C(=O)O` (configuration not stated) are > 100 µM (inactive) and > 100 µM (inactive).
With `CN(C)c1cccc2c(S(=O)(=O)NCCN)cccc12` [DANSYL ETHYLENEDIAMINE], the GI50 with T47D was > 100 µM (inactive).
As for `CO[C@@]12[C@H](COC(N)=O)C3=C(C(=O)C(C)=C(N)C3=O)N1C[C@H]1[C@@H]2N1C` (some centres not stated) [PORFIROMYCIN], the GI50 in the test on KM-20L2 was 7.98 µM (inactive); with T47D it was 9.2 µM (inactive); in the test on XF498 it was 3.61 µM (inactive); in the test on BT-549, 12.2 µM (inactive); with HOP-18, 4.75 µM (inactive); with DLD-1 it was 9.62 µM (inactive).

These data come from ChEMBL document CHEMBL1201862, “PubChem BioAssay data set” (2004).
